# Test results: US20110046228A1 (priority 2009, published 2011)
# Values joined by “and” are separate entries in the source; they are usually repeats but may differ in a detail not shown here. Identical values can stand only once. Like-named read-outs stand apart in the source and are kept apart here.
# Tests used:
# [1] = clinical; conditions: both, human, plasma, oral, 0.6 mg; for AUC(0-t): AUC0-t; for AUC(0-inf): AUC0-∞; for CL/F: Weight-Adjusted CL/F
# Experimental: This study is an open-label, non-randomized, single-center, one-sequence, two-period drug interaction study conducted in healthy male and female volunteers. Twenty-four (24) non-smoking, non-obese adult volunteers will be enrolled. All subjects will be dosed and studied as a single cohort, with each subject receiving the same treatment in a non-randomized fashion. As described below, a single dose of colchicine, 0.6 mg, will be administered alone on Day 1, and then co-administered with the grapefruit juice on Day 18. Grapefruit juice will be administered for 4 consecutive days (1×240 mL twice daily Days 15-17 and Day 18 (PM) alone and co-administered with a single 0.6 mg colchicine tablet in the morning on Day 18 (AM) (1×240 mL) beginning on the morning of Day 15, with the last 240 mL grapefruit juice dose administered in the evening of Day 18. A 14-day washout period will be completed after the first colchicine dose on Day 1 and prior to the administration of the first grapefruit juice dose on Day 15.
# Grapefruit juice ([…] ® brand) will be purchased and stored according to the labeled instructions. Subjects in the study will consume 240 mL (8 fluid ounces) of juice every 12 hours for 8 doses (4 day regimen) to ensure the maximum inhibitory effect.
# Following a screening period of up to 28 days, 24 healthy male and female volunteers will be enrolled. Subjects will be confined to the study unit for approximately 1.5 days on two separate occasions starting at least 10 hours prior to dosing on the evening of Day 1 and Day 17 until 24 hours following study drug administration on Day 1 and Day 18. In addition to confinement, study subjects will return to the clinical study site for the collection of blood samples 36, 48, 72, and 96 hours post dosing during both colchicine pharmacokinetic sampling periods. Total study participation, exclusive of up to 28 days of screening, will be approximately 22 days, during which subjects will be confined on two occasions for a total confinement of approximately 3 days.
# All subjects will receive a single 0.6 mg dose of colchicine on Day 1, followed by a 14-day washout period in which subjects will not be confined at study site. At discharge on Day 2 (at approximately 8 AM), study subjects will be instructed to return to the clinical site on Days 15 through 17 in the mornings and evenings to consume (1×240 mL, i.e., 8 fluid ounces) grapefruit juice twice daily on Days 15 through 17 in a ‘directly-observed’ fashion. On the evening of Day 17, study participants will return to the clinic for their final study confinement period. In the morning of Day 18, study subjects will receive a single 0.6 mg colchicine dose with a 240 mL serving of grapefruit juice. In the evening of Day 18, study subjects will receive their final 240 mL serving of grapefruit juice administered alone.
# A minimum fasting period of 10 hours (overnight fast) will be in effect before administration of colchicine on Day 1 and prior to the administration of colchicine and grapefruit juice on Day 18. Fasting will continue for 4 hours post-dosing on Days 1 and 18 after the morning administration. Grapefruit juice doses administered on Days 15-17 and Day 18 (PM) will not be in a fasted state. For colchicine, medication must be swallowed whole, not chewed. For grapefruit juice, the entire serving must be consumed. For all treatments, the subjects will not be permitted to lie down for the first 4 hours following administration of drug to ensure proper stomach emptying. On both of the confined study days after the morning administrations (Day 1 and Day 18), water will be allowed ad libitum beginning 2 hours post-dose. Intake of all study medications will be supervised. Standardized meals will be served according to a pre-determined schedule throughout the study.
# Serial blood samples will be collected by individual venipuncture up to 96 hours following drug administration on Day 1 and Day 18.
# [2] = tested on: individuals with Behcet's syndrome (or disease); conditions: adjusted to bodyweight, cited from earlier work
# [3] = design: AUC0-t, Geometric Mean: unit not given beside the values
# [4] = with a single glass (200-250 mL) of grapefruit juice; cited from earlier work
# [5] = Least Squares Mean, Non-Transformed Data, single 0.6 mg colchicine dose
# [6] = Mean, mean of N = 21, single 0.6 mg colchicine
# [7] = Median, median of N = 21, single 0.6 mg colchicine
# [8] = Geometric Mean, single 0.6 mg colchicine dose, N = 21, based on least squares means of ln-transformed values
# [9] = individual subjects, single 0.6 mg colchicine, plasma, A Day 1, A + B Day 18
# [10] = maximum of N = 21, single 0.6 mg colchicine, plasma
# [11] = mean of N = 21, single 0.6 mg colchicine, plasma
# [12] = median of N = 21, single 0.6 mg colchicine, plasma
# [13] = minimum of N = 21, single 0.6 mg colchicine, plasma
# [14] = single 0.6 mg colchicine dose, plasma
smiles,measurement,setting,value
"COc1cc2c(c(OC)c1OC)-c1ccc(OC)c(=O)cc1[C@@H](NC(C)=O)CC2 [Treatment A, (−)-N-[(7S, 12aS)-1,2,3,10-tetramethoxy-9-oxo-5,6,7,9-tetrahydrobenzo[a]heptalen-7-yl]-acetamide]",AUC(0-t),[1]; [5],0.00933 µg·h/mL
same,AUC(0-t),[1]; [6],0.00933 µg·h/mL
same,AUC(0-t),[1]; [7],0.00884 µg·h/mL
same,AUC(0-inf),[1]; [8],0.0105 µg·h/mL
same,AUC(0-inf),[1]; [5],0.0111 µg·h/mL
same,AUC(0-inf),[1]; [6],0.0111 µg·h/mL
same,AUC(0-inf),[1]; [7],0.0104 µg·h/mL
same,Cmax,[1]; [8],2.07 ng/mL
same,Cmax,[1]; [5],2.17 ng/mL
same,Cmax,[1]; [6],2.17 ng/mL
same,Cmax,[1]; [7],2.06 ng/mL
same,Tmax,[1]; [5],1.24 h
same,Tmax,[1]; [6],1.24 h
same,Tmax,[1]; [7],1 h
same,CL/F,[1]; [5],0.74 L/h/kg
same,CL/F,[1]; [6],0.74 L/h/kg
same,CL/F,[1]; [7],0.68 L/h/kg
same,half-life,"[1]; t1/2, Least Squares Mean, Non-Transformed Data, single 0.6 mg colchicine dose",4.64 h
same,half-life,"[1]; t1/2, Mean, mean of N = 21, single 0.6 mg colchicine",4.64 h
same,Clinical effect in Behcet's disease,[2]; 1-2 mg daily,"reduced the frequency of genital ulcers, erythema nodosum, and arthritis among women and reduced the occurrence of arthritis among men"
same,Clinical effect in Behcet's syndrome,[2]; 1-2.4 mg daily,"reduced the frequency of genital ulcers, erythema nodosum, and arthritis among women and reduced the occurrence of arthritis among men"
same,AUC0-∞,[3]; [9],0.0108336 µg·h/mL and 0.01415474 µg·h/mL and 0.0095485 µg·h/mL and 0.01307636 µg·h/mL and 0.02067702 µg·h/mL and 0.00919604 µg·h/mL and 0.00756206 µg·h/mL and 0.01095321 µg·h/mL and 0.01250531 µg·h/mL and 0.0082513 µg·h/mL and 0.00755929 µg·h/mL and 0.02166786 µg·h/mL and 0.00857677 µg·h/mL and 0.01079516 µg·h/mL and 0.00454846 µg·h/mL and 0.00955313 µg·h/mL
same,CL/F,[3]; [9],55.38 L/h and 42.39 L/h and 62.84 L/h and 57.10 L/h and 45.88 L/h and 29.02 L/h and 65.25 L/h and 79.34 L/h and 54.78 L/h and 57.58 L/h and 51.63 L/h and 57.64 L/h and 47.98 L/h and 72.72 L/h and 79.37 L/h and 27.69 L/h and 58.47 L/h and 69.96 L/h and 55.58 L/h and 131.91 L/h and 62.81 L/h
same,Kel,[3]; [9],0.1619 h⁻¹ and 0.2194 h⁻¹ and 0.1653 h⁻¹ and 0.1160 h⁻¹ and 0.1881 h⁻¹ and 0.0484 h⁻¹ and 0.2291 h⁻¹ and 0.1859 h⁻¹ and 0.1655 h⁻¹ and 0.1563 h⁻¹ and 0.1843 h⁻¹ and 0.1946 h⁻¹ and 0.1506 h⁻¹ and 0.1355 h⁻¹ and 0.2178 h⁻¹ and 0.0847 h⁻¹ and 0.1512 h⁻¹ and 0.1866 h⁻¹ and 0.1851 h⁻¹ and 0.2814 h⁻¹ and 0.1925 h⁻¹
same,Tmax,[3]; [9],1.00 h and 2.00 h
same,Varea/F,[3]; [9],342.07 L and 193.19 L and 380.20 L and 492.22 L and 243.91 L and 599.39 L and 284.79 L and 426.86 L and 331.07 L and 368.37 L and 280.11 L and 296.22 L and 318.56 L and 536.77 L and 364.36 L and 327.00 L and 386.70 L and 374.82 L and 300.24 L and 468.69 L and 326.22 L
same,t1/2,[3]; [9],4.28 h and 3.16 h and 4.19 h and 5.98 h and 3.68 h and 14.32 h and 3.03 h and 3.73 h and 4.43 h and 3.76 h and 3.56 h and 4.60 h and 5.12 h and 3.18 h and 8.19 h and 4.58 h and 3.71 h and 3.74 h and 2.46 h and 3.60 h
same,"AUC0-t, Max",[3]; [10],0.0183968 µg·h/mL
same,"AUC0-∞, Max",[3]; [10],0.02166786 µg·h/mL
same,"CL/F, Max",[3]; [10],131.91 L/h
same,"Cmax, Max",[3]; [10],3.758 ng/mL
same,"Kel, Max",[3]; [10],0.2814 h⁻¹
same,"Tmax, Max",[3]; [10],2.00 h
same,"Varea/F, Max",[3]; [10],599.39 L
same,"t1/2, Max",[3]; [10],14.32 h
same,"CL/F, Mean",[3]; [11],60.25 L/h
same,"Kel, Mean",[3]; [11],0.1714 h⁻¹
same,"Varea/F, Mean",[3]; [11],363.89 L
same,"CL/F, Median",[3]; [12],57.58 L/h
same,"Kel, Median",[3]; [12],0.1843 h⁻¹
same,"Varea/F, Median",[3]; [12],342.07 L
same,"t1/2, Median",[3]; [12],3.76 h
same,"AUC0-t, Min",[3]; [13],0.00383287 µg·h/mL
same,"AUC0-∞, Min",[3]; [13],0.00454846 µg·h/mL
same,"CL/F, Min",[3]; [13],27.69 L/h
same,"Cmax, Min",[3]; [13],0.8452 ng/mL
same,"Kel, Min",[3]; [13],0.0484 h⁻¹
same,"Tmax, Min",[3]; [13],1.00 h
same,"Varea/F, Min",[3]; [13],193.19 L
same,"t1/2, Min",[3]; [13],2.46 h
same,Bioequivalence of oral colchicine with grapefruit juice vs in the absence of grapefruit juice,[3]; recommended maximum daily amount of grapefruit juice (about 16 fluid ounces daily),bioequivalent
same,"Kel, Least Squares Mean, Non-Transformed Data",[3]; [14],0.1714
same,"Varea/F, Least Squares Mean, Non-Transformed Data",[3]; [14],363.89
same,"AUC0-t, Geometric Mean","[3]; single 0.6 mg colchicine dose, plasma, N = 21, based on least squares means of ln-transformed values",8806.78
CCOC(=O)C1=C(C)NC(C)=C(C(=O)OC)C1c1cccc(Cl)c1Cl (stereo not shown) [felodipine],Change in AUC and Cmax of orally administered felodipine,[4],several-fold increase
